Test results: US20060069132A1, “Azolecarboxamide herbicides” (priority 2004, published 2006)

Key:
[1] = tested on: barnyardgrass; assay: Test B pre-/postemergence herbicide test; format: in vivo, Echinochloa crus-galli; settings: for Plant response rating (0 to 100 scale), Barnyardgrass: 0 is no effect, preemergence
Procedure, shortened: (§1)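 Plants compared with untreated controls 13–15 days post-treatment and given a visual 0–100 injury score. Applications: preemergence to seeds; postemergence at 1- to 4-leaf (2–18 cm); paddy species flooded, 2-leaf stage. Vehicle non-phytotoxic, surfactant included.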

[2] = tested on: Surinam grass; assay: Test B pre-/postemergence herbicide test; format: in vivo, Urochloa decumbens; settings: 125 g ai/ha; for Plant response rating (0 to 100 scale), Surinam Grass: 0 is no effect, 100 is complete control, preemergence
Procedure, shortened: (§2)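 Formulation: non-phytotoxic solvent mix with surfactant. Timing: preemergence on seed and postemergence on 2–18 cm plants, applied concurrently. Readout after 13–15 d greenhouse: visual 0–100 control rating against controls.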

[3] = tested on: cocklebur; assay: Test B pre-/postemergence herbicide test; format: in vivo, Xanthium strumarium; settings: for Plant response rating (0 to 100 scale), Cocklebur: 0 is no effect, preemergence
Procedure, shortened: as §1

[4] = tested on: corn; assay: Test B pre-/postemergence herbicide test; format: in vivo, Zea mays; settings: for Plant response rating (0 to 100 scale), Corn: 0 is no effect, preemergence
Procedure, shortened: as §2

[5] = tested on: large crabgrass; assay: Test B pre-/postemergence herbicide test; format: in vivo, Digitaria sanguinalis; settings: for Plant response rating (0 to 100 scale), Crabgrass, Large: 0 is no effect, preemergence
Procedure, shortened: as §2

[6] = tested on: giant foxtail; assay: Test B pre-/postemergence herbicide test; format: in vivo, Setaria faberi; settings: for Plant response rating (0 to 100 scale), Foxtail, Giant: 0 is no effect, preemergence
Procedure, shortened: as §2

[7] = tested on: lambsquarters; assay: Test B pre-/postemergence herbicide test; format: in vivo, Chenopodium album; settings: 125 g ai/ha; for Plant response rating (0 to 100 scale), Lambsquarters: 0 is no effect, 100 is complete control, preemergence
Procedure, shortened: as §2

[8] = tested on: morningglory; assay: Test B pre-/postemergence herbicide test; format: in vivo, Ipomoea coccinea; settings: 125 g ai/ha; for Plant response rating (0 to 100 scale), Morningglory: 0 is no effect, 100 is complete control, preemergence
Procedure, shortened: as §1

[9] = tested on: pigweed; assay: Test B pre-/postemergence herbicide test; format: in vivo, Amaranthus retroflexus; settings: 125 g ai/ha; for Plant response rating (0 to 100 scale), Pigweed: 0 is no effect, 100 is complete control, preemergence
Procedure, shortened: as §2

[10] = tested on: velvetleaf; assay: Test B pre-/postemergence herbicide test; format: in vivo, Abutilon theophrasti; settings: 125 g ai/ha; for Plant response rating (0 to 100 scale), Velvetleaf: 0 is no effect, 100 is complete control, preemergence
Procedure, shortened: as §2

[11] = tested on: blackgrass; assay: Test B postemergence herbicide test; format: in vivo, Alopecurus myosuroides
Procedure, shortened: (§3)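 Formulated test chemicals went onto postemergence plants measuring 2 to 18 cm, at one to four leaves. For the paddy assay, species had reached two leaves. Scoring took place 13–15 days later by eye, relative to untreated plants, using 0 for no effect up to 100 for full control.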

[12] = tested on: wheat; assay: Test B postemergence herbicide test; format: in vivo, Triticum aestivum; parameters: key to Wheat plant response rating: 0 = no effect, 100 = complete control
Procedure, shortened: (§4)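 After treating 2-leaf paddy plants or 2–18 cm postemergence plants (1 to 4 leaves) with formulated chemical, researchers kept them in a greenhouse for 13–15 days. Effects were judged visually versus controls: 0 indicates none, 100 total control.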

[13] = tested on: wild oat; assay: Test B postemergence herbicide test; format: in vivo, Avena fatua; settings: 125 g ai/ha, visual rating, scale 0 (no effect) to 100 (complete control)
Procedure, shortened: as §4

[14] = tested on: rice; assay: Test B flooded paddy test; format: in vivo, Oryza sativa; settings: 1000 g ai/ha, scale 0 to 100 (0 no effect, 100 complete control)
Procedure, shortened: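 Scale 0–100: zero equals no visible effect, 100 complete control, judged by eye relative to controls. Timing: 13 to 15 days in greenhouse post-treatment. Growth stage at spraying: two leaves (paddy) or one to four leaves, 2–18 cm (postemergence).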

[15] = tested on: small flower umbrella sedge; assay: Test B flooded paddy test; format: in vivo, Cyperus difformis; settings: 1000 g ai/ha, scale 0 to 100 (0 no effect, 100 complete control)
Procedure, shortened: as §3

[16] = tested on: ducksalad; assay: Test B flooded paddy test; format: in vivo, Heteranthera limosa; settings: 1000 g ai/ha, scale 0 to 100 (0 no effect, 100 complete control)
Procedure, shortened: as §3

[17] = tested on: barnyardgrass; assay: Test B flooded paddy test; format: in vivo, Echinochloa crus-galli; settings: 1000 g ai/ha, scale 0 to 100 (0 no effect, 100 complete control)
Procedure, shortened: as §3

[18] = 125 g ai/ha, 100 is complete control
[19] = 125 g ai/ha, visual rating, scale 0 (no effect) to 100 (complete control), postemergence
[20] = postemergence, 500 g ai/ha, scale 0 to 100, 0 is no effect, 100 is complete control
[21] = visual rating, scale 0 (no effect) to 100 (complete control), postemergence

CCNC(=O)c1ccc(F)c(NC(=O)c2nn(C(C)(C)C)nc2CC)c1 [Compound 362]
Plant response rating (0 to 100 scale), Barnyardgrass [1, 18]: 10 | Barnyardgrass plant response rating [1, 19]: 0 | Barnyardgrass plant response rating [1, 20]: 0 | Plant response rating (0 to 100 scale), Surinam Grass [2]: 10 | Surinam Grass plant response rating [2, 21]: 10 | Plant response rating (0 to 100 scale), Cocklebur [3, 18]: 0 | Cocklebur plant response rating [3, 19]: 10 | Cocklebur plant response rating [3, 20]: 30 | Plant response rating (0 to 100 scale), Corn [4, 18]: 0 | Corn plant response rating [4, 19]: 0 | Corn plant response rating [4, 20]: 0 | Plant response rating (0 to 100 scale), Crabgrass, Large [5, 18]: 20 | Crabgrass, Large plant response rating [5, 19]: 0 | Crabgrass, Large plant response rating [5, 20]: 0 | Plant response rating (0 to 100 scale), Foxtail, Giant [6, 18]: 10 | Foxtail, Giant plant response rating [6, 19]: 10 | Foxtail, Giant plant response rating [6, 20]: 10 | Plant response rating (0 to 100 scale), Lambsquarters [7]: 0 | Lambsquarters plant response rating [7, 21]: 10 | Plant response rating (0 to 100 scale), Morningglory [8]: 0 | Morningglory plant response rating [8, 21]: 10 | Plant response rating (0 to 100 scale), Pigweed [9]: 0 | Pigweed plant response rating [9, 21]: 20 | Plant response rating (0 to 100 scale), Velvetleaf [10]: 0 | Velvetleaf plant response rating [10, 21]: 0 | Blackgrass plant response rating [11, 19]: 10 | Blackgrass plant response rating [11, 20]: 20 | Wheat plant response rating [12, 19]: 0 | Wheat plant response rating ([12]; 500 g ai/ha, scale 0 to 100, 0 no effect, 100 complete control, preemergence): 30 | Oat, Wild plant response rating ([13]; postemergence): 20 | Rice plant response rating [14]: 60 | Sedge, Umbrella plant response rating [15]: 90 | Ducksalad plant response rating [16]: 90 | Barnyardgrass plant response rating [17]: 50

CCNC(=O)c1cccc(NC(=O)c2nn(C(C)(C)C)nc2CC)c1 [Compound 365, 2-(1,1-dimethylethyl)-5-ethyl-N-[3-[(ethylamino)carbonyl]phenyl]-2H-1,2,3-triazole-4-carboxamide]
Plant response rating (0 to 100 scale), Barnyardgrass [1, 18]: 90 | pest or weed control at 125 g/ha ([1]; Echinochloa crus-galli, post-emergence, 125 g ai/ha, visual rating, scale 0 (no effect) to 100 (complete control), read-out: Barnyardgrass plant response rating): 0% | pest or weed control at 500 g/ha ([1]; Echinochloa crus-galli, post-emergence, postemergence, 500 g ai/ha, scale 0 to 100, 0 is no effect, 100 is complete control, read-out: Barnyardgrass plant response rating): 10% | Plant response rating (0 to 100 scale), Surinam Grass [2]: 70 | pest or weed control at 125 g/ha ([2]; Urochloa decumbens, post-emergence, visual rating, scale 0 (no effect) to 100 (complete control), read-out: Surinam Grass plant response rating): 10% | Plant response rating (0 to 100 scale), Cocklebur [3, 18]: 10 | pest or weed control at 125 g/ha ([3]; Xanthium strumarium, post-emergence, 125 g ai/ha, visual rating, scale 0 (no effect) to 100 (complete control), read-out: Cocklebur plant response rating): 20% | pest or weed control at 500 g/ha ([3]; Xanthium strumarium, post-emergence, postemergence, 500 g ai/ha, scale 0 to 100, 0 is no effect, 100 is complete control, read-out: Cocklebur plant response rating): 60% | Plant response rating (0 to 100 scale), Corn [4, 18]: 90 | plant injury at 125 g/ha ([4]; Zea mays, post-emergence, 125 g ai/ha, visual rating, scale 0 (no effect) to 100 (complete control), read-out: Corn plant response rating): 0% | plant injury at 500 g/ha ([4]; Zea mays, post-emergence, postemergence, 500 g ai/ha, scale 0 to 100, 0 is no effect, 100 is complete control, read-out: Corn plant response rating): 20% | Plant response rating (0 to 100 scale), Crabgrass, Large [5, 18]: 100 | pest or weed control at 125 g/ha ([5]; Digitaria sanguinalis, post-emergence, 125 g ai/ha, visual rating, scale 0 (no effect) to 100 (complete control), read-out: Crabgrass, Large plant response rating): 0% | pest or weed control at 500 g/ha ([5]; Digitaria sanguinalis, post-emergence, postemergence, 500 g ai/ha, scale 0 to 100, 0 is no effect, 100 is complete control, read-out: Crabgrass, Large plant response rating): 80% | Plant response rating (0 to 100 scale), Foxtail, Giant [6, 18]: 100 | pest or weed control at 125 g/ha ([6]; Setaria faberi, post-emergence, 336 h, 125 g ai/ha, visual rating, scale 0 (no effect) to 100 (complete control), read-out: Foxtail, Giant plant response rating): 20% | pest or weed control at 500 g/ha ([6]; Setaria faberi, post-emergence, 336 h, postemergence, 500 g ai/ha, scale 0 to 100, 0 is no effect, 100 is complete control, read-out: Foxtail, Giant plant response rating): 70% | Plant response rating (0 to 100 scale), Lambsquarters [7]: 100 | pest or weed control at 125 g/ha ([7]; Chenopodium album, post-emergence, 336 h, visual rating, scale 0 (no effect) to 100 (complete control), read-out: Lambsquarters plant response rating): 90% | Plant response rating (0 to 100 scale), Morningglory [8]: 50 | pest or weed control at 125 g/ha ([8]; Ipomoea, post-emergence, 336 h, visual rating, scale 0 (no effect) to 100 (complete control), read-out: Morningglory plant response rating): 80% | Plant response rating (0 to 100 scale), Pigweed [9]: 100 | pest or weed control at 125 g/ha ([9]; Amaranthus retroflexus, post-emergence, 336 h, visual rating, scale 0 (no effect) to 100 (complete control), read-out: Pigweed plant response rating): 40% | Plant response rating (0 to 100 scale), Velvetleaf [10]: 50 | pest or weed control at 125 g/ha ([10]; Abutilon theophrasti, post-emergence, 336 h, visual rating, scale 0 (no effect) to 100 (complete control), read-out: Velvetleaf plant response rating): 10% | pest or weed control at 125 g/ha ([11]; Alopecurus myosuroides, post-emergence, 336 h, 125 g ai/ha, visual rating, scale 0 (no effect) to 100 (complete control), read-out: Blackgrass plant response rating): 40% | pest or weed control at 500 g/ha ([11]; Alopecurus myosuroides, post-emergence, 336 h, postemergence, 500 g ai/ha, scale 0 to 100, 0 is no effect, 100 is complete control, read-out: Blackgrass plant response rating): 90% | plant injury at 125 g/ha ([12]; Triticum aestivum, post-emergence, 336 h, 125 g ai/ha, visual rating, scale 0 (no effect) to 100 (complete control), read-out: Wheat plant response rating): 20% | pest or weed control at 125 g/ha ([13]; Avena fatua, post-emergence, 336 h, read-out: Oat, Wild plant response rating): 30% | plant injury at 1000 g/ha ([14]; Oryza sativa, 336 h, read-out: Rice plant response rating): 90% | pest or weed control at 1000 g/ha ([15]; Cyperus difformis, 336 h, read-out: Sedge, Umbrella plant response rating): 90% | pest or weed control at 1000 g/ha ([16]; Heteranthera limosa, 336 h, read-out: Ducksalad plant response rating): 90% | pest or weed control at 1000 g/ha ([17]; Echinochloa crus-galli, 336 h, read-out: Barnyardgrass plant response rating): 90%
